Measured values reported in patent US8912176B2 (Evotec AG, priority 2009, dated 2014).

Target: human H3 receptor (Homo sapiens, UniProt Q9Y5N1)
Assay: cAMP quantification assay for human H3 receptor (DiscoveRx cAMP XS+)

Sequence of human H3 receptor (Q9Y5N1 whole entry): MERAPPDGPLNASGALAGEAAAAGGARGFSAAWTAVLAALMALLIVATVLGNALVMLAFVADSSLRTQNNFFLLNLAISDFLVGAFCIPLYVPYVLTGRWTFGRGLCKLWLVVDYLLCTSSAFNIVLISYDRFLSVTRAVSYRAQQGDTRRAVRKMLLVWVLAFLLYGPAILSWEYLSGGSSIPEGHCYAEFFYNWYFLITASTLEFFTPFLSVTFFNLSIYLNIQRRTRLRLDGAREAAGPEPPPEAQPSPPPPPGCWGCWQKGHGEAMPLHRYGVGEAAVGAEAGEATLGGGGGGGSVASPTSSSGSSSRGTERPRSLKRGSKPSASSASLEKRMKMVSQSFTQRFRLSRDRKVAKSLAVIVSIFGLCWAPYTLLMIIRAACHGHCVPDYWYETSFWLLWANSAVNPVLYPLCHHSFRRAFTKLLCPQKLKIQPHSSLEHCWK

Compound Cc1noc(-c2ccc(C(=O)N3CC(C(=O)N4CCCN(C5CCC5)CC4)C3)cc2)n1 [Example 41, 1-cyclobutyl-4-[(1-{[4-(3-methyl-1,2,4-oxadiazol-5-yl)phenyl]carbonyl}azetidin-3-yl)carbonyl]-1,4-diazepane] has an IC50 of less than 50 nM.

Work on CC1(C)COC(c2ccc(C(=O)N3CC(C(=O)N4CCCN(C5CCC5)CC4)C3)cc2)=N1 [Example 42, 1-cyclobutyl-4-[(1-{[4-(4,4-dimethyl-4,5-dihydro-1,3-oxazol-2-yl)phenyl]carbonyl}azetidin-3-yl)carbonyl]-1,4-diazepane] yielded an IC50 of less than 50 nM.

Work on Cc1ccc(CC(=O)N2CC(C(=O)N3CCCN(C4CCC4)CC3)C2)cn1 [Example 43, 1-cyclobutyl-4-({1-[(6-methylpyridin-3-yl)acetyl]azetidin-3-yl}carbonyl)-1,4-diazepane] yielded an IC50 of less than 50 nM.

Compound O=C(c1ccc(-c2cccnc2)cc1)N1CC(C(=O)N2CCCN(C3CCC3)CC2)C1 [Example 44, 1-cyclobutyl-4-({1-[(4-pyridin-3-ylphenyl)carbonyl]azetidin-3-yl}carbonyl)-1,4-diazepane] has an IC50 of less than 50 nM.

O=C(c1ccc(-c2ccncc2)cc1)N1CC(C(=O)N2CCCN(C3CCC3)CC2)C1 [Example 45, 1-cyclobutyl-4-({1-[(4-pyridin-4-ylphenyl)carbonyl]azetidin-3-yl}carbonyl)-1,4-diazepane] was tested, and the IC50 was less than 50 nM.

Cc1nc(-c2cccc(C(=O)N3CC(C(=O)N4CCCN(C5CCC5)CC4)C3)c2)cs1 [Example 46, 1-cyclobutyl-4-[(1-{[3-(2-methyl-1,3-thiazol-4-yl)phenyl]carbonyl}azetidin-3-yl)carbonyl]-1,4-diazepane] showed an IC50 of less than 50 nM.

Compound O=C(CC1CCOCC1)N1CC(C(=O)N2CCCN(C3CCC3)CC2)C1 [Example 53, 1-cyclobutyl-4-{[1-(tetrahydro-2H-pyran-4-ylacetyl)azetidin-3-yl]carbonyl}-1,4-diazepane] has an IC50 of 100 to 5000 nM.

Compound O=C(Cc1ccc(Cl)cc1)N1CC(C(=O)N2CCCN(C3CCC3)CC2)C1 [Example 54, 1-({1-[(4-chlorophenyl)acetyl]azetidin-3-yl}carbonyl)-4-cyclobutyl-1,4-diazepane] has an IC50 of less than 50 nM.

CS(=O)(=O)c1ccc(C(=O)N2CC(C(=O)N3CCCN(C4CCC4)CC3)C2)cc1 [Example 55, 1-cyclobutyl-4-[(1-{[4-(methylsulfonyl)phenyl]carbonyl}azetidin-3-yl)carbonyl]-1,4-diazepane] showed an IC50 of less than 50 nM.

With O=C(NCC1CCCCC1)N1CC(C(=O)N2CCCN(C3CCC3)CC2)C1 [Example 56, 3-[(4-cyclobutyl-1,4-diazepan-1-yl)carbonyl]-N-(cyclohexylmethyl)azetidine-1-carboxamide] the IC50 was less than 50 nM.

Work on O=C(NCC1CCOCC1)N1CC(C(=O)N2CCCN(C3CCC3)CC2)C1 [Example 57, 3-[(4-cyclobutyl-1,4-diazepan-1-yl)carbonyl]-N-(tetrahydro-2H-pyran-4-ylmethyl)azetidine-1-carboxamide] yielded an IC50 of less than 50 nM.

O=C(NCc1ccc(F)cc1)N1CC(C(=O)N2CCCN(C3CCC3)CC2)C1 [Example 58, 3-[(4-cyclobutyl-1,4-diazepan-1-yl)carbonyl]-N-(4-fluorobenzyl)azetidine-1-carboxamide] gave an IC50 of less than 50 nM.

With N#Cc1ccc(NC(=O)N2CC(C(=O)N3CCCN(C4CCC4)CC3)C2)cc1 [Example 59, N-(4-cyanophenyl)-3-[(4-cyclobutyl-1,4-diazepan-1-yl)carbonyl]azetidine-1-carboxamide] the IC50 was less than 50 nM.

Work on CN(CC1CCCCC1)C(=O)N1CC(C(=O)N2CCCN(C3CCC3)CC2)C1 [Example 60, 3-[(4-cyclobutyl-1,4-diazepan-1-yl)carbonyl]-N-(cyclohexylmethyl)-N-methylazetidine-1-carboxamide] yielded an IC50 of less than 50 nM.

In the case of CN(CC1CCOCC1)C(=O)N1CC(C(=O)N2CCCN(C3CCC3)CC2)C1 [Example 61, 3-[(4-cyclobutyl-1,4-diazepan-1-yl)carbonyl]-N-methyl-N-(tetrahydro-2H-pyran-4-ylmethyl)azetidine-1-carboxamide], the IC50 is reported as less than 50 nM.

CN(Cc1ccc(F)cc1)C(=O)N1CC(C(=O)N2CCCN(C3CCC3)CC2)C1 [Example 62, 3-[(4-cyclobutyl-1,4-diazepan-1-yl)carbonyl]-N-(4-fluorobenzyl)-N-methylazetidine-1-carboxamide] showed an IC50 of less than 50 nM.

With CN(C(=O)N1CC(C(=O)N2CCCN(C3CCC3)CC2)C1)c1ccc(C#N)cc1 [Example 63] the IC50 was less than 50 nM.

CN(Cc1ccc(C#N)cc1)C(=O)N1CC(C(=O)N2CCCN(C3CCC3)CC2)C1 [Example 64, N-(4-cyanobenzyl)-3-[(4-cyclobutyl-1,4-diazepan-1-yl)carbonyl]-N-methylazetidine-1-carboxamide] showed an IC50 of less than 50 nM.

O=C(C1CN(C(=O)N2CCc3ccccc3C2)C1)N1CCCN(C2CCC2)CC1 [Example 65, 2-({3-[(4-cyclobutyl-1,4-diazepan-1-yl)carbonyl]azetidin-1-yl}carbonyl)-1,2,3,4-tetrahydroisoquinoline] gave an IC50 of less than 50 nM.

N#Cc1ccc(CNC(=O)N2CC(C(=O)N3CCCN(C4CCC4)CC3)C2)cc1 [Example 66, N-(4-cyanobenzyl)-3-[(4-cyclobutyl-1,4-diazepan-1-yl)carbonyl]azetidine-1-carboxamide] gave an IC50 of less than 50 nM.

With O=C(Oc1ccc(Cl)cc1)N1CC(C(=O)N2CCCN(C3CCC3)CC2)C1 [Example 67, 4-chlorophenyl 3-[(4-cyclobutyl-1,4-diazepan-1-yl)carbonyl]azetidine-1-carboxylate] the IC50 was less than 50 nM.

In the case of N#Cc1ccc(OC(=O)N2CC(C(=O)N3CCCN(C4CCC4)CC3)C2)cc1 [Example 69, 4-cyanophenyl 3-[(4-cyclobutyl-1,4-diazepan-1-yl)carbonyl]azetidine-1-carboxylate], the IC50 is reported as less than 50 nM.

CC(=O)N1CC(C(=O)N2CCCN(C3CCC3)CC2)C1 [Example 70, 1-[(1-acetylazetidin-3-yl)carbonyl]-4-cyclobutyl-1,4-diazepane] was tested, and the IC50 was less than 50 nM.

Work on CCC(=O)N1CC(C(=O)N2CCCN(C3CCC3)CC2)C1 [Example 71, 1-cyclobutyl-4-[(1-propanoylazetidin-3-yl)carbonyl]-1,4-diazepane] yielded an IC50 of less than 50 nM.

Work on O=C(c1ccc(-n2ccnc2)cc1)N1CC(C(=O)N2CCCN(C3CCC3)CC2)C1 [Example 72, 1-cyclobutyl-4-[(1-{[4-(1H-imidazol-1-yl)phenyl]carbonyl}azetidin-3-yl)carbonyl]-1,4-diazepane] yielded an IC50 of less than 50 nM.

In the case of O=C(c1ccc(-n2cncn2)cc1)N1CC(C(=O)N2CCCN(C3CCC3)CC2)C1 [Example 73, 1-cyclobutyl-4-[(1-{[4-(1H-1,2,4-triazol-1-yl)phenyl]carbonyl}azetidin-3-yl)carbonyl]-1,4-diazepane], the IC50 is reported as less than 50 nM.

With O=C(c1ccc(Cn2cncn2)cc1)N1CC(C(=O)N2CCCN(C3CCC3)CC2)C1 [Example 74, 1-cyclobutyl-4-[(1-{[4-(1H-1,2,4-triazol-1-ylmethyl)phenyl]carbonyl}azetidin-3-yl)carbonyl]-1,4-diazepane] the IC50 was less than 50 nM.

Cc1cc(C(=O)N2CC(C(=O)N3CCCN(C4CCC4)CC3)C2)ccn1 [Example 75, 1-cyclobutyl-4-({1-[(2-methylpyridin-4-yl)carbonyl]azetidin-3-yl}carbonyl)-1,4-diazepane] showed an IC50 of less than 50 nM.

For CC(C)(O)c1ccc(C(=O)N2CC(C(=O)N3CCCN(C4CCC4)CC3)C2)cn1 [Example 76, 2-[5-({3-[(4-cyclobutyl-1,4-diazepan-1-yl)carbonyl]azetidin-1-yl}carbonyl)pyridin-2-yl]propan-2-ol], the IC50 was less than 50 nM.

CNC(=O)c1ccc(C(=O)N2CC(C(=O)N3CCCN(C4CCC4)CC3)C2)cn1 [Example 77, 5-({3-[(4-cyclobutyl-1,4-diazepan-1-yl)carbonyl]azetidin-1-yl}carbonyl)-N-methylpyridine-2-carboxamide] was tested, and the IC50 was less than 50 nM.

In the case of O=C(c1ccc(-n2cncn2)c(F)c1)N1CC(C(=O)N2CCCN(C3CCC3)CC2)C1 [Example 78, 1-cyclobutyl-4-[(1-{[3-fluoro-4-(1H-1,2,4-triazol-1-yl)phenyl]carbonyl}azetidin-3-yl)carbonyl]-1,4-diazepane], the IC50 is reported as less than 50 nM.

Work on Cc1ccc(C(=O)N2CC(C(=O)N3CCCN(C(C)C)CC3)C2)cn1 [Example 79, 1-(1-methylethyl)-4-({1-[(6-methylpyridin-3-yl)carbonyl]azetidin-3-yl}carbonyl)-1,4-diazepane] yielded an IC50 of 100 to 5000 nM.

For CCN1CCCN(C(=O)C2CN(C(=O)c3ccc(C)nc3)C2)CC1 [Example 80, 1-ethyl-4-({1-[(6-methylpyridin-3-yl)carbonyl]azetidin-3-yl}carbonyl)-1,4-diazepane], the IC50 was less than 50 nM.

In the case of Cc1ccc(C(=O)N2CC(C(=O)N3CCCN(C4CCCC4)CC3)C2)cn1 [Example 81, 1-cyclopentyl-4-({1-[(6-methylpyridin-3-yl)carbonyl]azetidin-3-yl}carbonyl)-1,4-diazepane], the IC50 is reported as less than 50 nM.

Cc1ccc(C(=O)N2CC(C(=O)N3CCCN(C4CCCCC4)CC3)C2)cn1 [Example 82, 1-cyclohexyl-4-({1-[(6-methylpyridin-3-yl)carbonyl]azetidin-3-yl}carbonyl)-1,4-diazepane] gave an IC50 of less than 50 nM.

Cc1ccc(C(=O)N2CC(C(=O)N3CCCN(CC4CC4)CC3)C2)cn1 [Example 83, 1-(cyclopropylmethyl)-4-({1-[(6-methylpyridin-3-yl)carbonyl]azetidin-3-yl}carbonyl)-1,4-diazepane] was tested, and the IC50 was 100 to 5000 nM.

Compound Cc1ccc(C(=O)N2CC(C(=O)N3CCCN(CC(C)C)CC3)C2)cn1 [Example 84, 1-(2-methylpropyl)-4-({1-[(6-methylpyridin-3-yl)carbonyl]azetidin-3-yl}carbonyl)-1,4-diazepane] has an IC50 of 100 to 5000 nM.

Cc1ccc(C(=O)N2CC(C(=O)N3CCN(C4CCC4)CC3)C2)cn1 [Example 87, 1-cyclobutyl-4-({1-[(6-methylpyridin-3-yl)carbonyl]azetidin-3-yl}carbonyl)piperazine] gave an IC50 of 100 to 5000 nM.
